Experimental data taken from US9163025B2, “Stable complexes of an alkaline earth metal salt of N5-methyl-tetrahydrofolic acid and a polyol” (CERBIOS-PHARMA SA, priority 2013, dated 2015).

Experiment: Accelerated stability of calcium (6S) N5-methyl-tetrahydrofolate products (HPLC related substances and assay)
Format: physicochemical
Settings: 25° C. and 40% relative humidity
Description: Determination of related substances of calcium (6S)—N^5-methyl-(5,6,7,8)-tetrahydrofolate by HPLC method
25±3 mg of (6S)-5-methyl-tetrahydrofolic acid calcium salt calculated on dry base were placed in a 50 ml volumetric flask and added with 320 μl of acid ascorbic solution and water until the final volume was reached. The solution was transferred in a HPLC vial and the sample injected immediately.
Analysis: 10 μl of the sample solution were Injected, the chromatogram recorded (analytical wavelength 280±16 nm) and the peak response measured.
the liquid chromatograph was equipped with a Hypersil ODS column (length 250 mm, ID 4 mm, particle size 5 μm). The column was coupled with a diode array detector for the detection wavelength of 280±16 nm
Determination of assay by HPLC of calcium (6RS) and (6S) N^5-methyl-tetrahydrofolate
75-85 mg of sample were dissolved in 200 ml water within a 250 ml volumetric flask. 1 ml of the ascorbic acid solution was added and dilute to 250 ml with water. A total of three sample solutions were prepared.
The HPLC system was verified and calibrated by injecting the standard solutions. Once each of the three prepared sample solutions were injected followed by one standard solution as calibration control.
The liquid chromatograph was equipped with an analytical column such ACE 5 C18, 250 mm×2.1 mm, with particle size 5 μm.
acetonitrile 12%, phosphate buffer pH 6.5 80%, methanol+2-mercaptoethanol 8%.
column temperature: 25° C., isocratic mode, flow rate: 0.41 ml/min, injection volume: 5 μl, run time: 13.5 min, analytical wavelength: 290 nm.
The stability of the complexes according to the present invention prepared by spray-drying or lyophilization as described in examples 5 and 7 was tested in comparison with the stability of (6S)—N^5-methyl-tetrahydrofolate calcium salt alone. Preparations obtained through different technologies, such as evaporation of the solvent from the solution, as reported in examples 2, 3 and 4, were also assessed for stability. Accelarated stability experiments at 25° C. and 40% relative humidity were carried out.

CN1c2c(nc(N)[nH]c2=O)NC[C@@H]1CNc1ccc(C(=O)N[C@@H](CCC(=O)[O-])C(=O)[O-])cc1.[Ca+2] [Product 5MeTHF, (6S)—N^5-methyl-(5,6,7,8)-tetrahydrofolate calcium salt]
Decrease of 5MeTHF % content (4 weeks): −2.70% | Increase of D2 % content (4 weeks): 1.30% | Decrease of 5MeTHF % content (12 weeks): −2.80% | Increase of D2 % content (12 weeks): 1.40% | Decrease of 5MeTHF % content (24 weeks): −5.6% | Increase of D2 % content (24 weeks): 2.3%
